Results reported in patent publication US12077503B2, “Substituted cyclic amides and their use as herbicides” (FMC CORPORATION, priority 2015, dated 2024).

Tests used:
Assay type in all cases: in vivo
[1] = system: corn (Zea mays); assay: Test A postemergence; details: Zea mays, post-emergence, 240 h; for plant injury at 125 g/ha: 125 g ai/ha, postemergence, visual injury rating after approximately 10 d, read-out: Corn plant response rating (0 to 100 scale, 0 no effect, 100 complete control)
Procedure, shortened: (§1)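 Seeded soil received test chemicals as a preemergence directed spray, and seedlings at one to two leaves, 2–10 cm tall, received them postemergence, in a non-phytotoxic, surfactant-containing solvent mixture. Pots were held in a greenhouse for approximately 10 d, then rated for injury from 0, no effect, to 100, complete control.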

[2] = system: ryegrass, Italian (Italian ryegrass, Lolium multiflorum); assay: Test A postemergence; details: Lolium multiflorum, post-emergence, 240 h; for pest or weed control at 125 g/ha: 125 g ai/ha, postemergence, visual injury rating after approximately 10 d, read-out: Ryegrass, Italian plant response rating (0 to 100 scale, 0 no effect, 100 complete control)
Procedure, shortened: as §1

[3] = system: giant foxtail (Setaria faberii); assay: Test A postemergence; details: Setaria faberi, post-emergence, 240 h; for pest or weed control at 125 g/ha: 125 g ai/ha, postemergence, visual injury rating after approximately 10 d, read-out: Foxtail, Giant plant response rating (0 to 100 scale, 0 no effect, 100 complete control)
Procedure, shortened: as §1

[4] = system: Galium (catchweed bedstraw, Galium aparine); assay: Test A postemergence; details: Galium, post-emergence, 240 h; for pest or weed control at 125 g/ha: 125 g ai/ha, postemergence, visual injury rating after approximately 10 d, read-out: Galium plant response rating (0 to 100 scale, 0 no effect, 100 complete control)
Procedure, shortened: as §1

[5] = system: blackgrass (Alopecurus myosuroides); assay: Test A postemergence; details: Alopecurus myosuroides, post-emergence, 240 h; for pest or weed control at 125 g/ha: 125 g ai/ha, postemergence, visual injury rating after approximately 10 d, read-out: Blackgrass plant response rating (0 to 100 scale, 0 no effect, 100 complete control)
Procedure, shortened: as §1

[6] = system: barnyardgrass (Echinochloa crus-galli); assay: Test A postemergence; details: Echinochloa crus-galli, post-emergence, 240 h; for pest or weed control at 125 g/ha: 125 g ai/ha, postemergence, visual injury rating after approximately 10 d, read-out: Barnyardgrass plant response rating (0 to 100 scale, 0 no effect, 100 complete control)
Procedure, shortened: as §1

[7] = system: ragweed (common ragweed, Ambrosia elatior); assay: Test A postemergence; details: Ambrosia artemisiifolia, post-emergence, 240 h; for pest or weed control at 125 g/ha: 125 g ai/ha, postemergence, visual injury rating after approximately 10 d, read-out: Ragweed plant response rating (0 to 100 scale, 0 no effect, 100 complete control)
Procedure, shortened: as §1

[8] = system: pigweed (Amaranthus retroflexus); assay: Test A postemergence; details: Amaranthus retroflexus, post-emergence, 240 h; for pest or weed control at 125 g/ha: 125 g ai/ha, postemergence, visual injury rating after approximately 10 d, read-out: Pigweed plant response rating (0 to 100 scale, 0 no effect, 100 complete control)
Procedure, shortened: as §1

[9] = system: Kochia (Kochia scoparia); assay: Test A postemergence; details: Bassia scoparia, post-emergence, 240 h; for pest or weed control at 125 g/ha: 125 g ai/ha, postemergence, visual injury rating after approximately 10 d, read-out: Kochia plant response rating (0 to 100 scale, 0 no effect, 100 complete control)
Procedure, shortened: as §1

[10] = system: ryegrass, Italian (Italian ryegrass, Lolium multiflorum); assay: Test A preemergence; details: Lolium multiflorum, pre-emergence, 240 h; for pest or weed control at 125 g/ha: 125 g ai/ha, preemergence, visual rating after approx. 10 d, 0 to 100 scale where 0 is no effect and 100 is complete control
Procedure, shortened: as §1

[11] = system: giant foxtail (Setaria faberii); assay: Test A preemergence; details: Setaria faberi, pre-emergence, 240 h; for pest or weed control at 125 g/ha: 125 g ai/ha, preemergence, visual rating after approx. 10 d, 0 to 100 scale where 0 is no effect and 100 is complete control
Procedure, shortened: as §1

[12] = system: barnyardgrass (Echinochloa crus-galli); assay: Test A preemergence; details: Echinochloa crus-galli, pre-emergence, 240 h; for pest or weed control at 125 g/ha: 125 g ai/ha, preemergence, visual rating after approx. 10 d, 0 to 100 scale where 0 is no effect and 100 is complete control
Procedure, shortened: as §1

[13] = system: ragweed (common ragweed, Ambrosia elatior); assay: Test A preemergence; details: Ambrosia artemisiifolia, pre-emergence, 240 h; for pest or weed control at 125 g/ha: 125 g ai/ha, preemergence, visual rating after approx. 10 d, 0 to 100 scale where 0 is no effect and 100 is complete control
Procedure, shortened: as §1

[14] = system: pigweed (Amaranthus retroflexus); assay: Test A preemergence; details: Amaranthus retroflexus, pre-emergence, 240 h; for pest or weed control at 125 g/ha: 125 g ai/ha, preemergence, visual rating after approx. 10 d, 0 to 100 scale where 0 is no effect and 100 is complete control
[15] = system: Kochia (Kochia scoparia); assay: Test A preemergence; details: Bassia scoparia, pre-emergence, 240 h; for pest or weed control at 125 g/ha: 125 g ai/ha, preemergence, visual rating after approx. 10 d, 0 to 100 scale where 0 is no effect and 100 is complete control
Procedure, shortened: as §1

[16] = read-out: Plant response rating, Ryegrass, Italian
[17] = read-out: Plant response rating, Foxtail, Giant
[18] = read-out: Plant response rating, Barnyardgrass
[19] = read-out: Plant response rating, Ragweed
[20] = read-out: Plant response rating, Pigweed
[21] = read-out: Plant response rating, Kochia

Row | Compound | plant injury at 125 g/ha [1] | pest or weed control at 125 g/ha [2] | pest or weed control at 125 g/ha [3] | pest or weed control at 125 g/ha [4] | pest or weed control at 125 g/ha [5] | pest or weed control at 125 g/ha [6] | pest or weed control at 125 g/ha [7] | pest or weed control at 125 g/ha [8] | pest or weed control at 125 g/ha [9] | pest or weed control at 125 g/ha [10, 16] | pest or weed control at 125 g/ha [11, 17] | pest or weed control at 125 g/ha [12, 18] | pest or weed control at 125 g/ha [13, 19] | pest or weed control at 125 g/ha [14, 20] | pest or weed control at 125 g/ha [15, 21] | also measured
1 | CN1CC[C@H](c2ccc3c(c2)OC(F)(F)O3)[C@@H](C(=O)Nc2ccc(F)c(F)c2F)C1=O [Compound 813] | 40% | 20% | 80% | 30% | 80% | 80% | 0% | 0% | 0% | 20% | 90% | 80% | 0% | 0% | 0% | Corn plant response rating (crop injury, 0 = no effect, 100 = complete kill) at 31 g/ha ([1]; Postemergence, 31 g ai/ha, visual injury after approx. 10 d, 0 to 100 scale, 0 no effect, 100 complete control): 30%; pest or weed control at 31 g/ha ([2]; Postemergence, 31 g ai/ha, visual injury after approx. 10 d, 0 to 100 scale, 0 no effect, 100 complete control, read-out: Plant response rating, Ryegrass, Italian): 0%; pest or weed control at 31 g/ha ([3]; Postemergence, 31 g ai/ha, visual injury after approx. 10 d, 0 to 100 scale, 0 no effect, 100 complete control, read-out: Plant response rating, Foxtail, Giant): 70%; pest or weed control at 31 g/ha ([4]; Postemergence, 31 g ai/ha, visual injury after approx. 10 d, 0 to 100 scale, 0 no effect, 100 complete control, read-out: Plant response rating, Galium): 20%; pest or weed control at 31 g/ha ([5]; Postemergence, 31 g ai/ha, visual injury after approx. 10 d, 0 to 100 scale, 0 no effect, 100 complete control, read-out: Plant response rating, Blackgrass): 30%; pest or weed control at 31 g/ha ([6]; Postemergence, 31 g ai/ha, visual injury after approx. 10 d, 0 to 100 scale, 0 no effect, 100 complete control, read-out: Plant response rating, Barnyardgrass): 40%; pest or weed control at 31 g/ha ([7]; Postemergence, 31 g ai/ha, visual injury after approx. 10 d, 0 to 100 scale, 0 no effect, 100 complete control, read-out: Plant response rating, Ragweed): 0%; pest or weed control at 31 g/ha ([8]; Postemergence, 31 g ai/ha, visual injury after approx. 10 d, 0 to 100 scale, 0 no effect, 100 complete control, read-out: Plant response rating, Pigweed): 0%; pest or weed control at 31 g/ha ([9]; Postemergence, 31 g ai/ha, visual injury after approx. 10 d, 0 to 100 scale, 0 no effect, 100 complete control, read-out: Plant response rating, Kochia): 0%; pest or weed control at 31 g/ha ([10]; Preemergence, 31 g ai/ha, 0 to 100 scale (0 no effect, 100 complete control), read-out: Plant response rating, Ryegrass, Italian): 0%; pest or weed control at 31 g/ha ([11]; Preemergence, 31 g ai/ha, 0 to 100 scale (0 no effect, 100 complete control), read-out: Plant response rating, Foxtail, Giant): 70%; pest or weed control at 31 g/ha ([12]; Preemergence, 31 g ai/ha, 0 to 100 scale (0 no effect, 100 complete control), read-out: Plant response rating, Barnyardgrass): 20%; pest or weed control at 31 g/ha ([13]; Preemergence, 31 g ai/ha, 0 to 100 scale (0 no effect, 100 complete control), read-out: Plant response rating, Ragweed): 0%; pest or weed control at 31 g/ha ([14]; Preemergence, 31 g ai/ha, 0 to 100 scale (0 no effect, 100 complete control), read-out: Plant response rating, Pigweed): 0%; pest or weed control at 31 g/ha ([15]; Preemergence, 31 g ai/ha, 0 to 100 scale (0 no effect, 100 complete control), read-out: Plant response rating, Kochia): 0%
2 | CN1C[C@H](c2cccc(C3CC3)c2)[C@@H](C(=O)Nc2ccccc2F)C1=O [Compound 815] | 50% | 60% | 90% | 50% | 50% | 100% | 0% | 20% | 40% | 80% | 90% | 90% | 0% | 30% | 70% | pest or weed control at 500 g/ha ([10]; 500 g ai/ha, Preemergence, visual injury vs untreated controls after approximately 10 d, read-out: Ryegrass, Italian plant response rating (0 to 100 scale where 0 is no effect and 100 is complete control)): 80%; pest or weed control at 500 g/ha ([11]; 500 g ai/ha, Preemergence, visual injury vs untreated controls after approximately 10 d, read-out: Foxtail, Giant plant response rating (0 to 100 scale where 0 is no effect and 100 is complete control)): 100%; pest or weed control at 500 g/ha ([12]; 500 g ai/ha, Preemergence, visual injury vs untreated controls after approximately 10 d, read-out: Barnyardgrass plant response rating (0 to 100 scale where 0 is no effect and 100 is complete control)): 100%; pest or weed control at 500 g/ha ([13]; 500 g ai/ha, Preemergence, visual injury vs untreated controls after approximately 10 d, read-out: Ragweed plant response rating (0 to 100 scale where 0 is no effect and 100 is complete control)): 0%; pest or weed control at 500 g/ha ([14]; 500 g ai/ha, Preemergence, visual injury vs untreated controls after approximately 10 d, read-out: Pigweed plant response rating (0 to 100 scale where 0 is no effect and 100 is complete control)): 50%; pest or weed control at 500 g/ha ([15]; 500 g ai/ha, Preemergence, visual injury vs untreated controls after approximately 10 d, read-out: Kochia plant response rating (0 to 100 scale where 0 is no effect and 100 is complete control)): 80%
